Test results published in US12312343B2, “Rotomeric isomers of 4-alkyl-5-heteroaryl-3H-1,2-dithiole-3-thiones” (ST IP HOLDING AG, priority 2018, dated 2025).

Legend:
SOD1 = assay: Human oxidative stress RT2 Profiler PCR array in HGEPp cells: SOD1; assay type: cell-based; conditions: 100 μg/ml, 24 h, RT-PCR ΔΔCt
Description: (§1) RT-PCR was performed on an iCycler.

NQO1 = assay: Human oxidative stress RT2 Profiler PCR array in HGEPp cells: NQO1; assay type: cell-based; conditions: 100 μg/ml, 24 h, RT-PCR ΔΔCt
Description: as §1

ALOX12 = assay: Human oxidative stress RT2 Profiler PCR array in HGEPp cells: ALOX12; assay type: cell-based; conditions: 100 μg/ml, 24 h, RT-PCR ΔΔCt
Description: as §1

HGEPp cells [1] = conditions: 100 μg/mL pretreatment; taken from PCT/IB2017/001312; cited from earlier work
GPX1 = assay: Human oxidative stress RT2 Profiler PCR array in HGEPp cells: GPX1; assay type: cell-based; conditions: 100 μg/ml, 24 h, RT-PCR ΔΔCt
Description: as §1

PTGS1 = assay: Human oxidative stress RT2 Profiler PCR array in HGEPp cells: PTGS1; assay type: cell-based; conditions: 100 μg/ml, 24 h, RT-PCR ΔΔCt
Description: as §1

GCLM = assay: Human oxidative stress RT2 Profiler PCR array in HGEPp cells: GCLM; assay type: cell-based; conditions: 100 μg/ml, 24 h, RT-PCR ΔΔCt
Description: as §1

UCP2 = assay: Human oxidative stress RT2 Profiler PCR array in HGEPp cells: UCP2; assay type: cell-based; conditions: 100 μg/ml, 24 h, RT-PCR ΔΔCt
Description: as §1

GSTP1 = assay: Human oxidative stress RT2 Profiler PCR array in HGEPp cells: GSTP1; assay type: cell-based; conditions: 100 μg/ml, 24 h, RT-PCR ΔΔCt
Description: as §1

GCLC = assay: Human oxidative stress RT2 Profiler PCR array in HGEPp cells: GCLC; assay type: cell-based; conditions: 100 μg/ml, 24 h, RT-PCR ΔΔCt
Description: as §1

GTF2i = assay: Human oxidative stress RT2 Profiler PCR array in HGEPp cells: GTF2i; assay type: cell-based; conditions: 100 μg/ml, 24 h, RT-PCR ΔΔCt
Description: as §1

HGEPp cells [2] = assay: ROS production in H2O2-induced oxidatively stressed HGEPp cells; conditions: HGEPp cells pretreated 24 hrs at 100 μg/mL, then 0.3 mM H2O2 for 4 h; positive control 139%
PRDX2 = assay: Human oxidative stress RT2 Profiler PCR array in HGEPp cells: PRDX2; conditions: 100 μg/ml, 24 h, RT-PCR ΔΔCt
Description: (§2) Pooled primary HGEPp cells were propagated in CnT-Prime epithelial culture medium provided by CellnTec on 100 mm petri dishes coated with 30 mg/ml Type I rat tail collagen (BD Biosciences) diluted in Dulbecco's phosphate-buffered saline (DPBS). HGEPp cells were grown in 12×60 mm Nunc™ Cell Culture dishes at a 2.5×10^4 cells/cm2 density concentration.
(§3) All dosing solutions contained 0.3% of DMSO which is well below the maximum tolerated DMSO percent of 0.8% for HGEPp cells.
(§4) The cDNA from above was mixed with the RT2 SYBR Green fluor Mastermix and aliquoted into the wells of the RT2 Profiler PCR Array. RT-PCR was performed on an iCycler. Gene expression was compared using Ct values and the results were calculated using ΔΔ Ct method with normalization to the average expression levels of the five common genes (ACTB, B2M, GAPDH, HPRT, and RPL13A).

GPX4 = assay: Human oxidative stress RT2 Profiler PCR array in HGEPp cells: GPX4; conditions: 100 μg/ml, 24 h, RT-PCR ΔΔCt
Description: as §2, §3, §4

MPO = assay: Human oxidative stress RT2 Profiler PCR array in HGEPp cells: MPO; conditions: 100 μg/ml, 24 h, RT-PCR ΔΔCt
Description: as §2, §3, §4

Molecule	SOD1 up regulation relative fold change (SOD1)	NQO1 up regulation relative fold change (NQO1)	ALOX12 up regulation relative fold change (ALOX12)	ROS level (optical density, Normal = 100% baseline), as reported in PCT/IB2017/001312 (HGEPp cells [1])	GPX1 up regulation relative fold change (GPX1)	PTGS1 down regulation relative fold change (PTGS1)	GCLM up regulation relative fold change (GCLM)	UCP2 down regulation relative fold change (UCP2)	GSTP1 up regulation relative fold change (GSTP1)	GCLC up regulation relative fold change (GCLC)	GTF2i down regulation relative fold change (GTF2i)	ROS level (optical density, Normal = 100% baseline) (HGEPp cells [2])	PRDX2 down regulation relative fold change (PRDX2)	GPX4 up regulation relative fold change (GPX4)	MPO up regulation relative fold change (MPO)
Cc1c(-c2cnccn2)ssc1=S [ST-617-API, 4-methyl-5-(pyrazin-2-yl)-3H-1,2-dithiole-3-thione, reference compound]	2.46 fold	2.95 fold	6.15 fold	124%	4.88 fold	0.22 fold	3.03 fold	0.18 fold	2.17 fold	4.14 fold	0.34 fold	–	–	–	–
methyl iodide complex of oltipraz [Example 5]	3.89 fold	3.15 fold	6.04 fold	–	4.98 fold	0.28 fold	2.27 fold	0.29 fold	2.90 fold	3.38 fold	0.33 fold	134%	0.32 fold	2.85 fold	3.18 fold
n-butyl chloride complex of oltipraz [Example 4]	4.15 fold	3.34 fold	5.82 fold	–	4.80 fold	0.27 fold	2.38 fold	0.25 fold	2.88 fold	3.35 fold	0.35 fold	128%	0.32 fold	2.96 fold	3.20 fold
thiobenzoic acid complex of oltipraz [Example 11]	4.96 fold	4.09 fold	6.39 fold	–	4.82 fold	0.22 fold	3.08 fold	0.15 fold	3.07 fold	4.46 fold	0.29 fold	116%	0.27 fold	2.94 fold	3.44 fold
